Measured values reported in ChEMBL document CHEMBL4196002, “Design, synthesis, mechanistic and histopathological studies of small-molecules of novel indole-2-carboxamides and pyrazino[1,2-a]indol-1(2H)-ones as potential anticancer agents effecting the reactive oxygen species production” (Eur J Med Chem, 2018).

How the values were obtained:
[1] = Cytotoxicity against human MCF10A cells assessed as cell viability at 50 uM after 96 hrs by MTT assay relative to control; format: cell-based, MCF-10A; settings: read-out: Activity
PC-3 = assay: Antiproliferative activity human PC3 cells after 48 hrs by propidium iodide staining-based fluorescence assay; format: functional, cell-based; settings: PC-3, 48 h
[2] = Inhibition of ROS generation in human PMN at 6.25 ug/ml after 50 mins by luminol-based chemiluminescence assay relative to control; format: functional
A549 = assay: Antiproliferative activity human A549 cells after 48 hrs by propidium iodide staining-based fluorescence assay; format: functional, cell-based; settings: A549, 48 h
[3] = Inhibition of ROS generation in human PMN at 1.56 ug/ml after 50 mins by luminol-based chemiluminescence assay relative to control; format: functional
MIA PaCa-2 = assay: Antiproliferative activity human MIAPaCa2 cells after 48 hrs by propidium iodide staining-based fluorescence assay; format: functional, cell-based; settings: MIA PaCa-2, 48 h
[4] = Inhibition of ROS generation in human PMN at 12.5 ug/ml after 50 mins by luminol-based chemiluminescence assay relative to control; format: functional
[5] = Inhibition of ROS generation in human PMN at 3.13 ug/ml after 50 mins by luminol-based chemiluminescence assay relative to control; format: functional
MCF7 = assay: Antiproliferative activity human MCF7 cells after 48 hrs by propidium iodide staining-based fluorescence assay; format: functional, cell-based; settings: MCF7, 48 h
[6] = Antioxidant activity assessed as DPPH radical scavenging activity at 50 uM after 30 mins dark incubation; format: functional
[7] = (§1) Inhibition of ROS generation in human PMN after 50 mins by luminol-based chemiluminescence assay; format: functional
Homo sapiens = organism: Homo sapiens; assay: as §1; format: functional
[8] = Antioxidant activity assessed as DPPH radical scavenging activity at 100 uM after 30 mins dark incubation; format: functional
HT-29 = assay: Antiproliferative activity human HT-29 cells after 48 hrs by propidium iodide staining-based fluorescence assay; format: functional, cell-based; settings: HT-29, 48 h
[9] = Antioxidant activity assessed as DPPH radical scavenging activity at 10 uM after 30 mins dark incubation; format: functional
[10] = Inhibition of ROS generation in human PMN at 0.78 ug/ml after 50 mins by luminol-based chemiluminescence assay relative to control; format: functional
[11] = biological target: Serine/threonine-protein kinase B-raf (Mus musculus, UniProt P28028, V600E); assay: Inhibition of mouse full-length GST-tagged BRAF V600E mutant using recombinant human full length N-terminal His-tagged MEK1 as substrate preincubated for 60 mins followed by substrate addition and measured after 25 mins by ELISA
Tubulin (Homo sapiens) = Tubulin (Homo sapiens) (UniProt P68371+Q9H4B7+P0DPH7+P68366+Q13509+Q71U36+P04350+Q3ZCM7+P07437+P68363+Q9BQE3+Q6PEY2+Q13885+Q9BVA1+Q9BUF5); assay: Inhibition of tubulin (unknown origin) polymerization assessed as tubulin assembly rate by fluorescence assay; format: protein-complex assay
[12] = biological target: Epidermal growth factor receptor (Homo sapiens, UniProt P00533); assay: Inhibition of His6-tagged EGFR (unknown origin) cytoplasmic domain expressed in baculovirus infected Sf9 insect cells after 10 mins followed by addition of ATP-MgCl2 and measured after 1 hr by time-resolved fluorometric analysis
Chain of Epidermal growth factor receptor (P00533 whole entry, the tested form may be a part): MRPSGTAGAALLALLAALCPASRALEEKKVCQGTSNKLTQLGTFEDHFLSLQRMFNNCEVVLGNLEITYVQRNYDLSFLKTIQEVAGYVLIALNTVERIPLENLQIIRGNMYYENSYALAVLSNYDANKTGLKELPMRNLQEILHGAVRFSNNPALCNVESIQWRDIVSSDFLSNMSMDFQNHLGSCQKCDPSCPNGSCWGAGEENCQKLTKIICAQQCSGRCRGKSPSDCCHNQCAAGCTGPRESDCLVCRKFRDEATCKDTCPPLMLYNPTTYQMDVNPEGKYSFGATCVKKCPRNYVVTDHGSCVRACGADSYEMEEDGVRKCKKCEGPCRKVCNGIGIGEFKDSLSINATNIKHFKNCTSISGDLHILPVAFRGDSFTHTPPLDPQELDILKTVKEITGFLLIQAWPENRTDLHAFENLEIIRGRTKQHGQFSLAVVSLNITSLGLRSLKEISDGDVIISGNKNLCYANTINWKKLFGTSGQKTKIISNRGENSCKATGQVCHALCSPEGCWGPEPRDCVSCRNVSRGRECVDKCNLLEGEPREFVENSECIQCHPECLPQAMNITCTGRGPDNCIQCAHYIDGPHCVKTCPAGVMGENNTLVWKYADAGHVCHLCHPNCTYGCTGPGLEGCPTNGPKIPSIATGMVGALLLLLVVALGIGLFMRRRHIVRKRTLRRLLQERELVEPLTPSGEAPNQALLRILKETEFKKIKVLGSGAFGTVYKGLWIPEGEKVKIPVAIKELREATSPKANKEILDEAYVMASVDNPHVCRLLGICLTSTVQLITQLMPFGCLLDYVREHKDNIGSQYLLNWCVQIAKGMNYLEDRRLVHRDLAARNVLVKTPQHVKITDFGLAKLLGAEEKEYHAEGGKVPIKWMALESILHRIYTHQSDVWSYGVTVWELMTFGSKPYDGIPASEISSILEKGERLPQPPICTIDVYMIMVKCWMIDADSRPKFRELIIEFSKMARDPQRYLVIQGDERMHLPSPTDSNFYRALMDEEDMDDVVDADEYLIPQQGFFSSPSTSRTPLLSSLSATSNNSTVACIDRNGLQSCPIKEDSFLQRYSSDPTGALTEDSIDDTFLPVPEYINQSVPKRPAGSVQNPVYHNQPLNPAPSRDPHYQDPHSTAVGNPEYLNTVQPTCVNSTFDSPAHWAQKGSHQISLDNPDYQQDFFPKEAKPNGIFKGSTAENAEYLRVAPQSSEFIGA

Chain of Serine/threonine-protein kinase B-raf (P28028 whole entry, looked up, stated change not applied): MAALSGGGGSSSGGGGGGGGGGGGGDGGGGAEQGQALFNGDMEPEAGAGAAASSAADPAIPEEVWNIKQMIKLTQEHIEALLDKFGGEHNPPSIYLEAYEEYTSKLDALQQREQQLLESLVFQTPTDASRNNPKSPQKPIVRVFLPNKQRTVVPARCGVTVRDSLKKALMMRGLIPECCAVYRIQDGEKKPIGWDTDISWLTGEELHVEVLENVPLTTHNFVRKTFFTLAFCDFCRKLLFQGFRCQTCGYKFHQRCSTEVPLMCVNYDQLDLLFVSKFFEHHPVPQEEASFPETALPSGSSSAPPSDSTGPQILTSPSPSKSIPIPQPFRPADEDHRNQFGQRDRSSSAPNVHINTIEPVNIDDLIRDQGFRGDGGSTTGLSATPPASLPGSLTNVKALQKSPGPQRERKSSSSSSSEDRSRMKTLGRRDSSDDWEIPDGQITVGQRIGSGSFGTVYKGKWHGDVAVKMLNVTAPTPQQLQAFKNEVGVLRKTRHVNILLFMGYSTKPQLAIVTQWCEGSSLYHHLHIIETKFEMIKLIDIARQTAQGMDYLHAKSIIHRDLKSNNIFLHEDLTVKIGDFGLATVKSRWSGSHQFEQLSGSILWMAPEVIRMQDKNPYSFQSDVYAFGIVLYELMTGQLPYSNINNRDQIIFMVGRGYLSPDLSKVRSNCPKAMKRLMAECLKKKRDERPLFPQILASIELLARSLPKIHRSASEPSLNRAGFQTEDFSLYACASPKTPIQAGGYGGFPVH

SMILES | viability at 96 h, 50 µM [1] | IC50 (PC-3) | inhibition at 6.25 µg/mL [2] | IC50 (A549) | inhibition at 1.56 µg/mL [3] | IC50 (MIA PaCa-2) | inhibition at 12.5 µg/mL [4] | inhibition at 3.13 µg/mL [5] | IC50 (MCF7) | Activity [6] | IC50 [7] | inhibition (Homo sapiens) | Activity [8] | IC50 (HT-29) | Activity [9] | inhibition at 0.78 µg/mL [10] | IC50 [11] | Activity (Tubulin (Homo sapiens)) | IC50 [12]
CCc1c2cc(Cl)ccc2n2cc(Cc3ccccc3)[nH]c(=O)c12 | 89% | 5.1 µM | 60% | 6 µM | 27% | 8.3 µM | 72% | 37% | 7.5 µM | 59% | 13.8 µM | Dose-dependent effect | 71.6% | 7.7 µM | 40.8% | 14% | – | – | –
CCc1c(C(=O)NC(CO)Cc2ccccc2)[nH]c2ccc(C(F)(F)F)cc12 (stereo not given) | 80% | 1.1 µM | 62% | 1.5 µM | 31% | 1.3 µM | 79% | 47% | 1.1 µM | 61.7% | 9.7 µM | Dose-dependent effect | 78% | 1.9 µM | 43.4% | 26% | 1 µM | 2650 a.u. | 0.9 µM
O=C(NC(CO)Cc1ccccc1)c1cc2cc(Cl)ccc2[nH]1 (stereo not given) | 89% | 2.4 µM | 60% | 1.9 µM | 33% | 2.6 µM | 77% | 48% | 1.4 µM | 61.2% | 11.3 µM | Dose-dependent effect | 77.5% | 2.4 µM | 50.2% | 25% | 4.8 µM | 2420 a.u. | 0.8 µM
CC(=O)Oc1ccccc1C(=O)O [ASPIRIN] | – | – | 85% | – | 46% | – | 92% | 63% | – | – | 9.78 µM | – | – | – | – | 33% | – | – | –
O=C(NC(CO)Cc1ccccc1)c1cc2ccccc2[nH]1 (stereo not given) | 96% | 16.5 µM | 47% | 15.4 µM | 21% | 18.6 µM | 64% | 32% | 16.4 µM | 50.1% | 23.1 µM | Dose-dependent effect | 64.6% | 16.9 µM | 24.8% | 9% | – | – | –
CCc1c2cc(Br)ccc2n2cc(Cc3ccccc3)[nH]c(=O)c12 | 82% | 3.4 µM | 61% | 4.5 µM | 44% | 4.6 µM | 70% | 52% | 3.6 µM | 73.9% | 6.44 µM | Dose-dependent effect | 82.4% | 4.8 µM | 54.5% | 25% | – | – | –
CCc1c(C(=O)NC(CO)Cc2ccc(Cl)cc2)[nH]c2ccc(Cl)cc12 (stereo not given) | 92% | 17.8 µM | 58% | 29.5 µM | 28% | 36 µM | 74% | 43% | 35.4 µM | 59.3% | 11.8 µM | Dose-dependent effect | 79.9% | 34.7 µM | 41.4% | 22% | – | – | –
CCc1c2cc(Cl)ccc2n2cc(Cc3ccc(Cl)cc3)[nH]c(=O)c12 | 90% | 15.8 µM | 68% | 27.9 µM | 37% | 33.7 µM | 83% | 52% | 26.5 µM | 70.1% | 7.77 µM | Dose-dependent effect | 84.5% | 27.8 µM | 50.4% | 25% | – | – | –
Cc1c(C)c2c(c(C)c1O)CCC(C)(C(=O)O)O2 (stereo not given) | – | – | – | – | – | – | – | – | – | 82.5% | – | – | 95.2% | – | 77.6% | – | – | – | –
O=c1[nH]c(Cc2ccccc2)cn2c1cc1ccccc12 | 92% | 13.4 µM | 51% | 14.7 µM | 27% | 13.8 µM | 68% | 40% | 13.6 µM | 52.4% | 19 µM | Dose-dependent effect | 65.9% | 13.8 µM | 29.3% | 14% | – | – | –
CCc1c(C(=O)NC(CO)Cc2ccccc2)[nH]c2ccc(Br)cc12 (stereo not given) | 85% | 5.9 µM | 55% | 4.8 µM | 31% | 5.5 µM | 67% | 45% | 4.7 µM | 67.4% | 10.6 µM | Dose-dependent effect | 78.5% | 6.5 µM | 49.2% | 19% | – | – | –
CCc1c(C(=O)NC(CO)Cc2ccccc2)[nH]c2ccc(Cl)cc12 (stereo not given) | 87% | 8.9 µM | 55% | 11.4 µM | 31% | 12.5 µM | 68% | 42% | 12.9 µM | 58.7% | 13 µM | Dose-dependent effect | 70.2% | 12.2 µM | 39.9% | 20% | – | – | –
